Assay: xn = mol fraction of the nth substance listed
Conditions: 100 kPa, Liquid, Vibrating tube method

CCCC(C)O (stereo not given) [pentan-2-ol] + O
mass density [kg/m3]
Conditions	x1 = 0.00105	x1 = 0.0021	x1 = 0.00413	x1 = 0.00599	x1 = 0.00677	x1 = 0.00857	x1 = 1
273.65 K	999.095	998.354	997.02	995.922	995.484	994.604	824
274.15 K	999.119	998.377	997.038	995.939	995.499	994.61	823.6
274.65 K	999.148	998.4	997.057	995.957	995.51	994.622	823.2
275.15 K	999.16	998.416	997.073	995.965	995.523	994.625	822.8
275.65 K	999.177	998.43	997.08	995.972	995.524	994.627	822.5
276.15 K	999.187	998.44	997.09	995.972	995.527	994.622	822.1
276.65 K	999.193	998.445	997.092	995.974	995.524	994.619	821.7
277.15 K	999.185	998.444	997.082	995.964	995.512	994.604	821.3
277.65 K	999.19	998.439	997.076	995.952	995.498	994.583	820.9
278.15 K	999.187	998.426	997.066	995.938	995.484	994.566	820.6
278.65 K	999.177	998.416	997.053	995.923	995.466	994.542	820.2
279.15 K	999.163	998.401	997.037	995.898	995.439	994.519	819.8
279.65 K	999.133	998.376	997.002	995.867	995.403	994.471	819.4
280.15 K	999.115	998.36	996.978	995.84	995.375	994.439	819.1
280.65 K	999.09	998.332	996.951	995.806	995.342	994.408	818.7
281.15 K	999.058	998.301	996.915	995.769	995.301	994.365	818.3
281.65 K	999.025	998.267	996.878	995.731	995.261	994.318	817.9
282.15 K	998.992	998.234	996.841	995.688	995.214	994.273	817.5

CCC(O)CC [3-pentanol] + O
mass density [kg/m3]
Conditions	x1 = 0.00117	x1 = 0.00216	x1 = 0.00361	x1 = 0.00517	x1 = 0.00616	x1 = 0.00773	x1 = 0.00866	x1 = 1
273.65 K	999.121	998.483	997.636	996.791	996.228	995.539	995.114	835.7
274.15 K	999.145	998.504	997.655	996.809	996.243	995.55	995.121	835.3
274.65 K	999.166	998.525	997.681	996.827	996.257	995.562	995.131	834.9
275.15 K	999.182	998.545	997.694	996.837	996.27	995.568	995.137	834.5
275.65 K	999.2	998.559	997.704	996.842	996.271	995.572	995.134	834.1
276.15 K	999.21	998.568	997.714	996.849	996.277	995.571	995.134	833.7
276.65 K	999.216	998.574	997.718	996.852	996.271	995.565	995.128	833.3
277.15 K	999.214	998.574	997.712	996.843	996.263	995.555	995.116	832.9
277.65 K	999.21	998.562	997.704	996.832	996.251	995.537	995.092	832.5
278.15 K	999.206	998.556	997.698	996.822	996.238	995.523	995.08	832.1
278.65 K	999.194	998.549	997.686	996.805	996.219	995.503	995.05	831.7
279.15 K	999.182	998.533	997.668	996.789	996.197	995.475	995.023	831.3
279.65 K	999.159	998.5	997.635	996.752	996.159	995.434	994.98	830.9
280.15 K	999.14	998.48	997.609	996.729	996.134	995.406	994.948	830.5
280.65 K	999.119	998.457	997.582	996.698	996.103	995.368	994.912	830.1
281.15 K	999.084	998.424	997.551	996.663	996.061	995.327	994.867	829.7
281.65 K	999.053	998.388	997.515	996.619	996.024	995.286	994.819	829.3
282.15 K	999.017	998.353	997.476	996.581	995.981	995.24	994.77	828.9
